Reference: patent publication US20230391727A1, “ANALOGUES OF PENTAMIDINE AND METHODS FOR TREATING INFECTIONS” (Auransa Inc., priority 2020, published 2023)
Converted amounts (≈) assume the structure as drawn. Like-named read-outs stand apart in the source and are kept apart here. Each block holds one molecule with its values, some of them ahead of it.

How the values were obtained:
Format in all cases: cell-based
Candida glabrata 05-62 = experiment: Anti-fungal MIC assay
Experimental: (§1) The first round of testing included Candida parapsilosis, Candida krusei, Paecilomyces variotii, Candida albicans, Aspergillus fumigatus, and Blastomyces dermatitidis. […] The second round of testing included Candida parapsilosis, Candida krusei, Candida albicans, Candida auris, Candida glabrata, Candida guilliermondii, and Cryptococcus neoformans.
(§2) Stock solutions of the investigational agent were prepared at concentrations 100-times the highest concentration to be tested (6400 μg/ml) using dimethyl sulfoxide. Aliquots of the stock solutions were dispensed into polystyrene vials and stored at −20° C.
(§3) The synthetic medium RPMI-1640 (with glutamine, without bicarbonate, and with phenol red) was used. The RPMI was buffered to a pH of 7.0+0.1 at 25° C. with 0.165M MOPS (3-[N-morpholino] propanesulfonic acid). Sterile U-shaped 96-well cell culture plates were used to perform the MIC assays. Dilutions of the DMSO stocks were prepared in RPMI to achieve 2× concentrations. After the dilutions of the working 2× investigational antifungal solutions were prepared, 0.1 ml of each concentration was transferred into a pre-specified column of the U-shaped 96-well cell culture plate using sterile pipettes.
(§4) Fungal isolates were grown on Sabouraud dextrose agar (yeasts) or potato flake agar (filamentous fungi) and cells were collected after an appropriate period of growth for each species being evaluated (e.g., 48-72 hours for yeasts and 7 days for filamentous fungi). The fungi were suspended in sterile distilled water, and the densities of the fungal suspension were read using a spectrophotometer and adjusted to an appropriate optical density specific for each fungal species. The fungal suspension of each isolate was then diluted in RPMI. A sufficient volume of the test inoculum was prepared to directly inoculate 0.1 ml into each test well of the 96-well cell culture plate. Final inoculum ranges were dependent on the fungal species to be tested (e.g., 0.4×103 to 5×10^3 cells/ml for yeasts and dimorphic fungi, and 0.4×104 to 5×10^4 cells/ml for filamentous fungi). Each well of the 96-well cell culture plate containing the investigational antifungal compounds (0.1 ml volume) was inoculated on the day of the assay with 0.1 ml of the fungal suspension. Growth control wells contained 0.1 ml of fungal suspension and 0.1 ml of the growth medium without antifungal agents. The media control well contained 0.2 ml of the growth medium.
(§5) The microdilution trays were incubated at 35° C. without agitation. […] One positive comparator/control was used for yeast (fluconazole) and one was used for filamentous fungi (voriconazole).

[1] = test system: Candida guilliermondii Cgui3; experiment: Anti-fungal MIC assay; settings: Meyerozyma guilliermondii
Experimental: as §1, §2, §3, §4, §5

Candida albicans SC5314 = experiment: Anti-fungal MIC assay
Experimental: as §1, §2, §3, §4, §5

Candida albicans CA3 = experiment: Anti-fungal MIC assay
Experimental: as §1, §2, §3, §4, §5

[2] = test system: Cryptococcus neoformans H99; experiment: Anti-fungal MIC assay
Experimental: as §1, §2, §3, §4, §5

Candida glabrata CG3 = experiment: Anti-fungal MIC assay; settings: Nakaseomyces glabratus
Experimental: as §1, §2, §3, §4, §5

Candida glabrata 05-761 = experiment: Anti-fungal MIC assay
Experimental: as §1, §2, §3, §4, §5

[3] = test system: Candida parapsilosis ATCC22019; experiment: Anti-fungal MIC assay; settings: Lodderomyces parapsilosis
Experimental: as §1, §2, §3, §4, §5

Candida albicans 43001 = experiment: Anti-fungal MIC assay
Experimental: as §1, §2, §3, §4, §5

[4] = test system: Candida guilliermondii Cgui1; experiment: Anti-fungal MIC assay; settings: Meyerozyma guilliermondii
Experimental: as §1, §2, §3, §4, §5

[5] = test system: Paecilomyces variotii MYA-3630; experiment: Anti-fungal MIC assay
Experimental: as §1, §2, §3, §4, §5

Candida albicans CA5 = experiment: Anti-fungal MIC assay
Experimental: as §1, §2, §3, §4, §5

Candida auris DI17-48 = experiment: Anti-fungal MIC assay; settings: Candidozyma auris
Experimental: as §1, §2, §3, §4, §5

Candida parapsilosis CP3 = experiment: Anti-fungal MIC assay; settings: Lodderomyces parapsilosis
Experimental: as §1, §2, §3, §4, §5

Candida parapsilosis CP2 = experiment: Anti-fungal MIC assay; settings: Lodderomyces parapsilosis
Experimental: as §1, §2, §3, §4, §5

[6] = test system: Candida guilliermondii Cgui2; experiment: Anti-fungal MIC assay; settings: Meyerozyma guilliermondii
Experimental: as §1, §2, §3, §4, §5

Candida albicans CA6 = experiment: Anti-fungal MIC assay
Experimental: as §1, §2, §3, §4, §5

[7] = test system: Cryptococcus neoformans CN3; experiment: Anti-fungal MIC assay
Experimental: as §1, §2, §3, §4, §5

Candida parapsilosis CP1 = experiment: Anti-fungal MIC assay
Experimental: as §1, §2, §3, §4, §5

Candida auris DI17-46 = experiment: Anti-fungal MIC assay; settings: Candidozyma auris
Experimental: as §1, §2, §3, §4, §5

Candida krusei ATCC6258 = experiment: Anti-fungal MIC assay; settings: Pichia kudriavzevii, second round (Table 6)
Experimental: as §1, §2, §3, §4, §5

[8] = test system: Candida albicans ATCC90028; experiment: Anti-fungal MIC assay
Experimental: as §1, §2, §3, §4, §5

[9] = test system: Cryptococcus neoformans USC 1597; experiment: Anti-fungal MIC assay
Experimental: as §1, §2, §3, §4, §5

Candida auris DI17-47 = experiment: Anti-fungal MIC assay; settings: Candidozyma auris
Experimental: as §1, §2, §3, §4, §5

[10] = test system: Staphylococcus aureus ATCC 19636; experiment: MIC assay against gram positive and antibiotic-resistant S. aureus; settings: Staphylococcus aureus, ATCC19636
Experimental: (§6) The MICs of vancomycin and linezolid were determined as quality controls and the MIC values of each strain met the acceptance criteria based on PDS historical reference data.
(§7) The direct colony suspension method was used to prepare inoculated broth. Isolated colonies were taken from an 18-24 h culture plate. Optical density measurements (OD620 nm) were used to estimate the bacterial density. The test article, compound 3, and reference control stock solutions were prepared in 100% DMSO as 50× stock solutions. The 50× stock solutions were diluted by 2-fold serial titrations with 100% DMSO for a total of 11 concentrations. A 4 μL aliquot of each dilution was added to 196 μL of cation-adjusted Mueller Hinton Broth II medium seeded with the organism in wells of a 96 well plate. The final vehicle concentration was two percent (2%) in all assay wells. The final bacterial count was 2 to 8×10^5 CFU/mL. The final compound 3 concentration range was 16 to 0.016 μg/mL. Each test substance dilution was evaluated in duplicate on one test occasion. Vehicle-control and reference controls were used as blank and positive controls, respectively. Plates were incubated at 35-37° C. for 18 h. The test plates were visually examined and each well was visually scored for growth or complete inhibition of growth. The MIC value was recorded.

[11] = test system: Staphylococcus aureus ATCC 33591 (MRSA); experiment: as above; settings: Staphylococcus aureus
Experimental: as §6, §7

[12] = test system: Staphylococcus aureus VRS-2 (VRSA); experiment: as above; settings: Staphylococcus aureus, VRSA
Experimental: as §6, §7

[13] = test system: Staphylococcus aureus BAA-1556 (MRSA); experiment: as above; settings: Staphylococcus aureus
Experimental: as §6, §7

[14] = read-out: MIC, 50% growth inhibition
[15] = read-out: MIC, 100% growth inhibition

MIC (Candida glabrata 05-62; Nakaseomyces glabratus, 0562, read-out: MIC, 50% growth inhibition): > 64 µg/mL | MIC (Candida glabrata 05-62; Nakaseomyces glabratus, 0562, read-out: MIC, 100% growth inhibition): > 64 µg/mL | MIC [1, 14]: 2 µg/mL (≈ 6.53 µM) | MIC [1, 15]: 4 µg/mL (≈ 13.1 µM) | MIC (Candida albicans SC5314; [14]): 0.25 µg/mL (≈ 0.816 µM) | MIC (Candida albicans SC5314; [15]): > 64 µg/mL | MIC (Candida albicans CA3; [14]): > 64 µg/mL | MIC (Candida albicans CA3; [15]): > 64 µg/mL | MIC [2, 14]: 16 µg/mL (≈ 52.2 µM) | MIC [2, 15]: 32 µg/mL (≈ 104 µM) | MIC (Candida glabrata CG3; [14]): 0.5 µg/mL (≈ 1.63 µM) | MIC (Candida glabrata CG3; [15]): 64 µg/mL (≈ 209 µM) | MIC (Candida glabrata 05-761; Nakaseomyces glabratus, 05761, read-out: MIC, 50% growth inhibition): 8 µg/mL (≈ 26.1 µM) | MIC (Candida glabrata 05-761; Nakaseomyces glabratus, 05761, read-out: MIC, 100% growth inhibition): 32 µg/mL (≈ 104 µM) | MIC ([3]; ATCC22019, C. parapsilosis ATCC 22019, second round (Table 6), read-out: MIC, 50% growth inhibition): 2 µg/mL (≈ 6.53 µM) | MIC ([3]; ATCC22019, Candida parapsilosis ATCC22019, first round (Table 5), read-out: MIC, 50% growth inhibition): 1 µg/mL (≈ 3.27 µM) | MIC ([3]; ATCC22019, read-out: MIC, 100% growth inhibition, C. parapsilosis ATCC 22019, second round (Table 6)): 2 µg/mL (≈ 6.53 µM) | MIC ([3]; ATCC22019, read-out: MIC, 100% growth inhibition, Candida parapsilosis ATCC22019, first round (Table 5)): 2 µg/mL (≈ 6.53 µM) | MIC (Candida albicans 43001; [14]): > 64 µg/mL | MIC (Candida albicans 43001; [15]): > 64 µg/mL | MIC [4, 14]: 1 µg/mL (≈ 3.27 µM) | MIC [4, 15]: 4 µg/mL (≈ 13.1 µM) | MIC ([5]; MYA3630, read-out: MIC, 50% growth inhibition): 16 µg/mL (≈ 52.2 µM) | MIC ([5]; MYA3630, read-out: MIC, 100% growth inhibition): 32 µg/mL (≈ 104 µM) | MIC (Candida albicans CA5; [14]): 0.25 µg/mL (≈ 0.816 µM) | MIC (Candida albicans CA5; [15]): > 64 µg/mL | MIC (Candida auris DI17-48; DI1748, read-out: MIC, 50% growth inhibition): 2 µg/mL (≈ 6.53 µM) | MIC (Candida auris DI17-48; DI1748, read-out: MIC, 100% growth inhibition): 16 µg/mL (≈ 52.2 µM) | MIC (Candida parapsilosis CP3; [14]): 1 µg/mL (≈ 3.27 µM) | MIC (Candida parapsilosis CP3; [15]): 1 µg/mL (≈ 3.27 µM) | MIC (Candida parapsilosis CP2; [14]): 0.5 µg/mL (≈ 1.63 µM) | MIC (Candida parapsilosis CP2; [15]): 0.5 µg/mL (≈ 1.63 µM) | MIC [6, 14]: 2 µg/mL (≈ 6.53 µM) | MIC [6, 15]: 4 µg/mL (≈ 13.1 µM) | MIC (Candida albicans CA6; [14]): 0.25 µg/mL (≈ 0.816 µM) | MIC (Candida albicans CA6; [15]): > 64 µg/mL | MIC [7, 14]: > 64 µg/mL | MIC [7, 15]: > 64 µg/mL | MIC (Candida parapsilosis CP1; [14]): 0.5 µg/mL (≈ 1.63 µM) | MIC (Candida parapsilosis CP1; [15]): 1 µg/mL (≈ 3.27 µM) | MIC (Candida auris DI17-46; DI1746, read-out: MIC, 50% growth inhibition): > 64 µg/mL | MIC (Candida auris DI17-46; DI1746, read-out: MIC, 100% growth inhibition): > 64 µg/mL | MIC (Candida krusei ATCC6258; ATCC6258, C. krusei ATCC 6258, read-out: MIC, 50% growth inhibition): 16 µg/mL (≈ 52.2 µM) | MIC (Candida krusei ATCC6258; ATCC6258, read-out: MIC, 100% growth inhibition, C. krusei ATCC 6258): 32 µg/mL (≈ 104 µM) | MIC [8, 14]: ≤ 0.125 µg/mL | MIC [8, 15]: > 64 µg/mL | MIC ([9]; USC1597, read-out: MIC, 50% growth inhibition): 4 µg/mL (≈ 13.1 µM) | MIC ([9]; USC1597, read-out: MIC, 100% growth inhibition): 8 µg/mL (≈ 26.1 µM) | MIC (Candida auris DI17-47; DI1747, read-out: MIC, 50% growth inhibition): > 64 µg/mL | MIC (Candida auris DI17-47; DI1747, read-out: MIC, 100% growth inhibition): > 64 µg/mL
Structure (SMILES): OC(Cn1cncn1)(Cn1cncn1)c1ccc(F)cc1F [Fluconazole, reference compound]

Structure (SMILES): CN[C@H](CC(C)C)C(=O)N[C@H]1C(=O)N[C@@H](CC(N)=O)C(=O)N[C@H]2C(=O)N[C@H]3C(=O)N[C@H](C(=O)N[C@H](C(=O)O)c4cc(O)cc(O)c4-c4cc3ccc4O)[C@H](O)c3ccc(c(Cl)c3)Oc3cc2cc(c3O[C@@H]2O[C@H](CO)[C@@H](O)[C@H](O)[C@H]2O[C@H]2C[C@](C)(N)[C@H](O)[C@H](C)O2)Oc2ccc(cc2Cl)[C@H]1O [Vancomycin]
MIC [10]: 0.5 µg/mL (≈ 0.345 µM) | MIC [11]: 0.5 µg/mL (≈ 0.345 µM) | MIC [12]: > 64 µg/mL | MIC [13]: 0.5 µg/mL (≈ 0.345 µM)
